Measurements taken from ChEMBL document CHEMBL3044557, “Phytotoxicity Caused by Peroxidizing Herbicides Is Alleviated by 2-Substituted 4, 6-Bis(ethylamino)-1, 3, 5-triazines” (J Pestic Sci, 1997).
Calls of active or inactive are those of the source. No cut-off for these calls is given here.

What was measured:
[1] = tested on: Scenedesmus acutus; assay: Protection against oxyfluorfen-induced phytotoxicity in Scenedesmus acutus in light condition assessed as reduction of protoporphyrin-9 accumulation per ml of packed cell volume after 2 hr; type: functional
[2] = tested on: Scenedesmus acutus; assay: Protection against oxyfluorfen-induced phytotoxicity in Scenedesmus acutus in light condition assessed as reduction of ethane formation per ml of packed cell volume after 16 hr (reference value: 11.82 nM); type: functional
[3] = tested on: Scenedesmus acutus; assay: Protection against oxyfluorfen-induced phytotoxicity in Scenedesmus acutus in light condition assessed as increase of chlorophyll content after 16 hr (reference value: 0.94 ug/ml); type: functional
[4] = tested on: Scenedesmus acutus; assay: Protection against chlorophthalim-induced phytotoxicity in Scenedesmus acutus in light condition assessed as reduction of ethane formation per ml of packed cell volume after 16 hr (reference value: 11.82 nM); type: functional
[5] = tested on: Scenedesmus acutus; assay: Protection against chlorophthalim-induced phytotoxicity in Scenedesmus acutus in light condition assessed as reduction of protoporphyrin-9 accumulation per ml of packed cell volume after 2 hr; type: functional
[6] = tested on: Scenedesmus acutus; assay: Protection against chlorophthalim-induced phytotoxicity in Scenedesmus acutus in light condition assessed as increase of chlorophyll content after 16 hr (reference value: 0.94 ug/ml); type: functional
[7] = tested on: Scenedesmus acutus; assay: Protection against chlorophthalim-induced phytotoxicity in Scenedesmus acutus in light condition assessed as cell density per micro liter of packed cell volume after 16 hr (reference value: 2.1 ml); type: functional; set-up: unit not given here
[8] = tested on: Scenedesmus acutus; assay: Phytotoxicity against Scenedesmus acutus in light condition assessed as reduction of chlorophyll content after 16 hr (reference value: 20.25 ug/ml); type: functional
[9] = tested on: Scenedesmus acutus; assay: Phytotoxicity against Scenedesmus acutus in dark condition assessed as effect on protoporphyrin-9 accumulation per ml of packed cell volume at 10^-5 M after 16 hr; type: functional, organism-based
[10] = tested on: Scenedesmus acutus; assay: Protection against oxyfluorfen-induced phytotoxicity in Scenedesmus acutus in light condition assessed as cell density per micro liter of packed cell volume after 16 hr (reference value: 2.1 ml); type: functional; set-up: unit not given here
[11] = tested on: Scenedesmus acutus; assay: Phytotoxicity against Scenedesmus acutus in light condition assessed as effect on protoporphyrin-9 accumulation per ml of packed cell volume at 10^-5 M after 16 hr; type: functional, organism-based
[12] = tested on: Scenedesmus acutus; assay: Phytotoxicity against Scenedesmus acutus in light condition assessed as cell density per micro liter of packed cell volume after 16 hr (reference value: 3.4 ml); type: functional; set-up: unit not given here

SMILES	Activity [1]	Activity [2]	Activity [3]	Activity [4]	Activity [5]	Activity [6]	Activity [7]	Activity [8]	Activity [9]	Activity [10]	Activity [11]	Activity [12]
CCOc1cc(Oc2ccc(C(F)(F)F)cc2Cl)ccc1[N+](=O)[O-] [OXYFLUORFEN]	102.38 nM	11.82 nM	0.94 µg/mL									
O=C1C2=C(CCCC2)C(=O)N1c1ccc(Cl)cc1 [CHLOROPHTHALIUM]				12.73 nmol/mL	128.65 nmol/mL	0.99 µg/mL	2.3					
CN(C)C(=O)Nc1ccc(Cl)c(Cl)c1 [DCMU]	29.12 nM		14.57 µg/mL	0.41 nmol/mL	18.86 nmol/mL	11.56 µg/mL		17.66 µg/mL				
CCNc1nc(NCC)nc(-c2ccccc2)n1	69.9 nM	11.93 nM	0.67 µg/mL	13.64 nmol/mL	133.96 nmol/mL	0.46 µg/mL	2.3	19.08 µg/mL	inactive	2.2	inactive	3.2
CCNc1nc(Cl)nc(NCC)n1 [SIMAZINE]	52.7 nM	2.82 nM	13.05 µg/mL	4.24 nmol/mL	19.15 nmol/mL	10.52 µg/mL		16.86 µg/mL	inactive		inactive	
CCNc1nc(NCC)nc(C(F)(F)F)n1	31.24 nM	1.26 nM	13.53 µg/mL	3.2 nmol/mL	38.65 nmol/mL	11.04 µg/mL	2.4	16.7 µg/mL	inactive	2.4	inactive	2.6
CCNc1nc(NCC)nc(SC)n1 [SIMETRYN]	30.67 nM	0.4 nM	14.46 µg/mL	1.7 nmol/mL	31.92 nmol/mL	10.52 µg/mL		17.74 µg/mL	inactive		inactive	
CCNc1nc(C)nc(NCC)n1	57.97 nM	11.93 nM	1.05 µg/mL	12.92 nmol/mL	67.45 nmol/mL	1.37 µg/mL	2.3	19.09 µg/mL	inactive	2.3	inactive	3
CCNc1nc(NCC)nc(C(Cl)(Cl)Cl)n1	37.08 nM	1.63 nM	13.31 µg/mL	3.63 nmol/mL	27.65 nmol/mL	10.48 µg/mL	2.4	19.23 µg/mL	inactive	2.2	inactive	2.6
